# Columns and labels:
# [1] = test system: immune cells isolated from the spleens of normal C57/BL6 mice; experiment: Suppression of SDF1-induced migration of spleen immune cells in trans wells; format: cell-based; details: SD911 20 μM; SDF1 20 ng/ml in lower compartment; FIGS. 1A and 1B
# Experimental: The present inventors screened a novel compound SD911 by using activity inhibition analysis of inflammatory cytokines in immune cells of a sphingosin 1-phosphate lyase (SPL) inhibitor, and tried to confirm an immune cell migration inhibitory effect of the screened SD911. Specifically, single cells (immune cells) were isolated from the spleens of normal C57/BL6 mice, and the isolated immune cells were cultured in […] trans wells (upper compartment). For migration of the cultured immune cells, stromal cell-derived factor 1 (SDF1) was treated at a concentration of 20 ng/ml to stimulate the lower compartment. The immune cells moved to the lower compartment by stromal cell-derived factor 1 (SDF1), and at this time, whether the migration was inhibited by SD911 was analyzed.
# [2] = test system: human leukocyte antigen (HLA); experiment: HLA inhibition in IFNγ-treated kidney organoids (in vitro rejection model); format: cell-based; details: 50 μM SD911; kidney organoids from WTC-11 iPSC treated with IFNγ; FIG. 4
# Experimental: (§1) WTC-11 cells, standard normal human induced pluripotent stem cells (iPSC) were differentiated into kidney organoids and treated with IFNγ, a cytokine known to induce transplantation rejection to construct an in vitro rejection model increasing human leukocyte antigen (HLA). Thereafter, the constructed kidney organoids were treated with 50 μM of SD911.
# IL-17 = IL-17 positive cell infiltration in renal tissue by immunohistochemical staining, kidney transplantation rejection model; format: in vivo; details: 300 μg/mice, group injected with PBMCs of patients with kidney transplantation rejection, FIGS. 10A and 10B
# Experimental: (§2) In order to produce a kidney transplantation rejection model, peripheral blood mononuclear cells (PBMCs) derived from transplantation rejection patients (kidney transplantation rejection patients) were intravascularly injected at a cell concentration of 5×10^6/mice, and then after 3 weeks, engraftment of transplantation rejection patient cells in the blood was confirmed, and a kidney transplantation rejection model was constructed. As a control group, normal human PBMCs were injected (FIG. 6).
# (§3) At 3 weeks after PBMC administration to the kidney transplantation rejection model prepared in Example 4-1, the mice were treated with physiological saline (vehicle) and SD911 (300 μg/mice) and sacrificed at 4 weeks and then the kidneys of the mice were extracted.
# (§4) Immunohistochemical staining was performed to confirm whether IL-17, an inflammatory cytokine, has been infiltrated into the renal tissue extracted in Example 4-2. The extracted tissue was fixed with formalin, and then embedded in paraffin to generate slices with a thickness of 5 μm. In order to observe immune cells in the tissue, immunohistochemical analysis was performed by reacting with a human IL-17 antibody on the slice slide.
# [3] = test system: kidney transplantation rejection model; experiment: Cell infiltration and kidney damage (H&E) in kidney transplantation rejection model; format: in vivo; details: 300 μg/mice, compared with the vehicle group, FIGS. 8A and 8B
# Experimental: as §2, with “6). At 3 weeks after PBMC administration to the kidney transplantation rejection model prepared in Example 4-1, the mice were treated with physiological saline (vehicle) and SD911 (300 μg/mice) and sacrificed at 4 weeks and then the kidneys of the mice were extracted.” for “6).”
# kidney organoids = experiment: Flow cytometry of nephron marker double positive cells in cytokine-treated kidney organoids; format: cell-based, human; details: SD911 50 μg/mL; TNF-α and INFγ treated kidney organoids; FIGS. 5A to 5F
# Experimental: as §1
# In the kidney organoids prepared in Example 3-1, when treated with the cytokines TNF-α and INFγ and when treated with SD911 at a concentration of 50 μg/mL, changes in cell patterns were analyzed by flow cytometry. Specifically, the patterns of nephron markers PODXL, LTL, ECAD and double positive cells in kidney organoids were analyzed.
# [4] = test system: T cell subtypes (Th1, Th2, Th17, Treg); experiment: T cell subtype analysis by flow cytometry of spleen immune cells in skin transplantation model; format: in vivo; details: 200 μg/mice, spleen after 5 days, compared to control group
# Excerpt: (§5) In order to confirm A therapeutic effect of SD911 of the present invention on transplantation rejection, an allogenic skin transplantation animal model was used. Specifically, as the allogenic skin transplantation animal model, the tail skins of male donor […] mice (Orient Bio Inc.) were exfoliated and transplanted onto the back skins of male recipient BALB/c mice (Orient Bio Inc.). One day before transplant, the recipient mice were divided into two groups, a control group (Saline group) administered intraperitoneally with physiological saline, and an experimental group (SD911 group) administered with SD911 at a concentration of 200 μg/mice.
# Some of the recipient mice that had undergone the skin transplant were humanely sacrificed after 5 days, the spleens were extracted, and immune cells were isolated from the spleens. In order to analyze T cell subtypes in the isolated immune cells, flow cytometry was performed, and to identify pro-inflammatory T cells, the number of CD4+, IFN+, IL4+ and IL17+ positive cells was analyzed. In addition, regulatory T cells (Treg) were identified as CD4+CD25+Foxp3+ positive cells.
# [5] = test system: allogenic skin transplantation animal model; experiment: Skin transplant viability in allogenic skin transplantation animal model; format: in vivo; details: 200 μg/mice
# Excerpt: as §5
# The skin changes of the control group or the experimental group (SD911 group) treated with SD911 at a concentration of 200 μg/mice were observed daily, and the viability was calculated by calculating the rejection when scab formation or skin atrophy of 70% or more occurred on the transplanted skin. A drug administration schedule was illustrated in FIG. 2A.
# [6] = test system: CD4+T (CD4+), subtype of human immune cells; experiment: CD4 positive cell infiltration in renal tissue by immunohistochemical staining, kidney transplantation rejection model; format: in vivo; details: 300 μg/mice, group injected with PBMCs of patients with kidney transplantation rejection, FIGS. 9A and 9B
# Experimental: as §2, §3
# as §4, with “CD4+T (CD4+), subtype of human immune cells,” for “IL-17, an inflammatory cytokine,”, “in” for “into”, “CD4” for “IL-17”
structure (smiles),measurement,setting,value
"C[C@@H]1CN(c2nnc(Oc3ccccc3)c3ccccc23)CCN1c1ccc(C#N)cn1 [SD911, 6-((R)-2-methyl-4-(1-phenoxyphthalazin-4-yl)piperazin-1-yl)pyridine-3-carbonitrile]",migration of immune cells induced by SDF1,[1],blocked
same,HLA increased by IFNγ,[2],suppressed
same,infiltration of IL-17-positive cells,IL-17,significantly reduced
same,kidney damage,[3],suppressed
same,human PBMC infiltration,[3]; glomerulus,suppressed
same,"positive cell ratio of the nephron marker (PODXL, LTL, ECAD double positive cells)",kidney organoids,significantly decreased
same,number of Th1 cells,[4]; FIG. 3A,significantly decreased
same,number of Th2 cells,[4]; FIG. 3B,significantly decreased
same,number of Th17 cells,[4]; FIG. 3C,significantly decreased
same,Treg (CD4+CD25+Foxp3+ positive cells),[4]; FIG. 3D,increased
same,viability of the transplanted skin,"[5]; compared to control (Saline) group, FIG. 2B",significantly increased
same,survival time of the transplanted skin,"[5]; compared to control group, FIG. 2C",significantly increased
same,infiltration of CD4-positive cells,[6],significantly reduced
